Like-named read-outs stand apart in the source and are kept apart here.
How the values were obtained:
Type in all cases: cell-based
CaV3.3 = CaV3.3 (Homo sapiens, UniProt Q9P0X4); experiment: T-type calcium channel window current FLIPR assay, CaV3.3
Protocol: (§1) The human embryonic kidney 293 (HEK 293) cell lines (from Emmanuel Bourinet, Montpellier, France) stably expressing CaV3.2 or CaV3.3 were cultured under 5% carbon dioxide at 37 °C in Dulbecco’s Modified Eagle Medium (DMEM) Glutamax (Gibco, Life Technologies, Carlsbad, CA, USA) supplemented with 10% (v/v) fetal bovine serum (FBS), 100 U/mL penicillin, 100 μg/mL streptomycin (Gibco, Life Technologies), and 750 μg/mL geneticin (G418) (Gibco, Life Technologies). The Chinese Hamster Ovary (CHO) cell lines (Emmanuel Bourinet, Montpellier, France) expressing CaV3.1 were cultured under 5% carbon dioxide at 37 °C in Alpha Minimum Essential Media (MEM) Glutamax (Gibco, Life Technologies), supplemented with 10% (v/v) fetal bovine serum (FBS) and 300 μg/mL geneticin (G418) (Gibco, Life Technologies). The human neuroblastoma SH-SY5 Y cells (Victor Diaz, Goettingen, Germany) were cultured under 5% carbon dioxide at 37 °C in RPMI 1640 antibiotic-free medium (Invitrogen, Carlsbad, CA, USA), supplemented with 15% FBS and 2 mM GlutaMAX™ (Invitrogen). D-PBS (Gibco, Life Technologies) was used to wash the cells, and 0.25% Trypsin-EDTA (Gibco, Life Technologies) was used to detach cells from the flask surface. They were split in a ratio of 1:5 (ideally 1000 cells/cm^2) when they reached 70%–80% confluence (every 2–3 days). Transiently transfected CaV3.1HEK293 T cells were used in FLIPR Assays. HEK 293 T cells were cultured under 5% carbon dioxide at 37 °C in DMEM supplemented with 10% (v/v) FBS. D-PBS was used to wash the cells, and 0.25% Trypsin-EDTA was used to detach cells from the flask surface. The cells were split and seeded at 6 million cells per T175 flask, to reach 70%–80% confluence after 24 h. The next day, 12 μg DNA of human CaV3.1 was incubated in 900 μL serum-free DMEM with 36 μL FuGENE HD transfection reagent (Promega Corporation, Madison, WI, US) (1:3 DNA/Fugene ratio) for 20 min, and then the mixture was added into the cell flask slowly, drop by drop. After the transfection, the cells were cultured under 5% carbon dioxide at 37 °C for 24 h and then moved to a 28 °C incubator.
(§2) HEK 293 cells stably expressing CaV3.2 or CaV3.3 were seeded into 384-well black wall clear bottom plates (Corning, Lowell, MA, USA) at a density of 30,000 cells per well. Transiently transfected CaV3.1HEK293 T cells were seeded into 384-well black wall clear bottom plates at a density of 60,000 cells per well. Once the cells reached 90%–95% confluence after 24 h, the media were removed from the wells and replaced with 20 μL of 10% calcium 4 dye (Molecular Devices, Sunnyvale, CA, USA) in HBSS-HEPES (containing 5 mM KCl, 10 mM HEPES, 140 mM NaCl, 10 mM glucose, and 0.5 mM CaCl2, pH 7.4) with 0.1% bovine serum albumin (BSA). The cells were incubated for 30 min at 37 °C in the presence of 5% carbon dioxide. Each well on the reagent plates for the first addition contained 15 μL different concentrations of compounds dissolved in HBSS-HEPES containing 0.1% BSA and <0.1% DMSO and was incubated for 20 min after loading. Positive and negative controls contained 15 μL of HBSS-HEPES (0.1% BSA) alone. The plates were placed in the FLIPR^TETRA (Molecular Devices, Sunnyvale, CA, USA) programmed to measure maximum fluorescence intensity following a second addition of the agonist 5 mM CaCl2. The data acquisition parameters were adjusted as follows: Baseline fluorescence of 1500–2000 arbitrary fluorescence units (AFU), emission wavelength of 515–575 nm, and excitation wavelength of 470–495 nm. HBSS-HEPES (0.1% BSA) was used in the second addition as a negative control. One fluorescence reading was taken before the second addition. Then the fluorescence readings were recorded every two seconds for 300 s. Raw fluorescence readings in the form of relative light units were converted to response over baseline using ScreenWorks® (Molecular Devices, version 3.2.0.14) software.
(§3) Data were plotted and analyzed using GraphPad Prism v7.0 (GraphPad Software Inc., San Diego, CA, USA).

CaV3.2 = CaV3.2 (Homo sapiens, UniProt O95180); experiment: T-type calcium channel window current FLIPR assay, CaV3.2
Sequence of CaV3.2 (O95180 whole entry): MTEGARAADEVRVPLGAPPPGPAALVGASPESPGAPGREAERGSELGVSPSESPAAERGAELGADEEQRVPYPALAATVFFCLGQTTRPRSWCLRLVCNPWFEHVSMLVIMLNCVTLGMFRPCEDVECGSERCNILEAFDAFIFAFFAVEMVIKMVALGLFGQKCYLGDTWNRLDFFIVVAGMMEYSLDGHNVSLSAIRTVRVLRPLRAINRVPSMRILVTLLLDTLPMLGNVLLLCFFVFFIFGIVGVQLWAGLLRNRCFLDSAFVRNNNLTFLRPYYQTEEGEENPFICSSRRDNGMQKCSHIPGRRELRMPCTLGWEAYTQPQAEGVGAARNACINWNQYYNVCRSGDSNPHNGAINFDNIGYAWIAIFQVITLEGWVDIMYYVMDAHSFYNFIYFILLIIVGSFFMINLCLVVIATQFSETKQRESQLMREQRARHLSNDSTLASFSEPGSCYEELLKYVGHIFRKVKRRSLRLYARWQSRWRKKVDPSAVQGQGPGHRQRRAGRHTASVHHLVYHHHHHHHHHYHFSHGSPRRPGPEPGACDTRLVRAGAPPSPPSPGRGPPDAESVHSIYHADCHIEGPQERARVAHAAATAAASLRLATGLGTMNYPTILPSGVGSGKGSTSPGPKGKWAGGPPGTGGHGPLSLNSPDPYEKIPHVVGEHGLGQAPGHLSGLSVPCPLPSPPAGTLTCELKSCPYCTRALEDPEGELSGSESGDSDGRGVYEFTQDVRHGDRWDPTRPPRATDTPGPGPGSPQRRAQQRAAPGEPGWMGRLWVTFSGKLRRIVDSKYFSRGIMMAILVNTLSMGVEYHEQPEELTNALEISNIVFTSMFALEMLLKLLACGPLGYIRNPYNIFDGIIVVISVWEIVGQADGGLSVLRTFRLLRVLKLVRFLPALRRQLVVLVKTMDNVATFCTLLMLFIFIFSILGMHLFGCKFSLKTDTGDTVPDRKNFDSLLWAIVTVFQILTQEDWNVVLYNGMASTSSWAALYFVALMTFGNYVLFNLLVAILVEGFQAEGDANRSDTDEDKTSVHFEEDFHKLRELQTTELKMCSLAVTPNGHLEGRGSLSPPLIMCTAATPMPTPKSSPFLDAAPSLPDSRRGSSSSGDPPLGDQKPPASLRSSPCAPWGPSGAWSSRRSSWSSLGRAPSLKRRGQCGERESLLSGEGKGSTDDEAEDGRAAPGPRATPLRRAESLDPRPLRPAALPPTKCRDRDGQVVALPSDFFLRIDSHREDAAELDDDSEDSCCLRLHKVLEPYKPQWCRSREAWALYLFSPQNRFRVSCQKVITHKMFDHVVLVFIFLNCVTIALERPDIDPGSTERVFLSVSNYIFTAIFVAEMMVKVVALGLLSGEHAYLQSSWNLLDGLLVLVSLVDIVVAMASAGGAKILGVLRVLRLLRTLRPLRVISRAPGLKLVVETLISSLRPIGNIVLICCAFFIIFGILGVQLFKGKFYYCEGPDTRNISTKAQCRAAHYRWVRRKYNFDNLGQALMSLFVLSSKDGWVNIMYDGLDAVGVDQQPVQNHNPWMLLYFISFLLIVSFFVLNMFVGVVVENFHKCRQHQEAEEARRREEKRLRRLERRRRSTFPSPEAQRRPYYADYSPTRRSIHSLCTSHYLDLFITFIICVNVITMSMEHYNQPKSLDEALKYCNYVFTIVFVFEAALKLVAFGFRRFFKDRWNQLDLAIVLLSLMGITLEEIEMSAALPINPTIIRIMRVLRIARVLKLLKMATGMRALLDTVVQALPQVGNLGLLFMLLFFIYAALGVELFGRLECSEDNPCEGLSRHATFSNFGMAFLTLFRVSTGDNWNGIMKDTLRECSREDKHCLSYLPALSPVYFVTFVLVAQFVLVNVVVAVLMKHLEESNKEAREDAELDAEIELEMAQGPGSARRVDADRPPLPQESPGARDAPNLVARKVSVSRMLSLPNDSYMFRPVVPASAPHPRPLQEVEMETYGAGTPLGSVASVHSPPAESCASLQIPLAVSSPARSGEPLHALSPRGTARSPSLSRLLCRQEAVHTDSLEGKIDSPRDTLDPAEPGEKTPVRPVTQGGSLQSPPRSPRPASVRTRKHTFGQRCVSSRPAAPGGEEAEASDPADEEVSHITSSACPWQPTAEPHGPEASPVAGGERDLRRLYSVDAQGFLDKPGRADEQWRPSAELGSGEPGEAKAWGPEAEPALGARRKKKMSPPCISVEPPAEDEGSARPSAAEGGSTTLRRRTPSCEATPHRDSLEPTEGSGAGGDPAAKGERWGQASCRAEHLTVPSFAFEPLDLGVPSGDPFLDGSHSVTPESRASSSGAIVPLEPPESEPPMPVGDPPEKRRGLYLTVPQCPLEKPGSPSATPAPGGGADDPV
Protocol: as §1, §2, §3

[1] = target: recombinant hCaV3.2 channels (Homo sapiens, UniProt O95180); experiment: Whole-cell patch-clamp QPatch 16 X, CaV3.2
Sequence of recombinant hCaV3.2 channels (O95180 whole entry): as above
Protocol: as §1
Whole-cell patch-clamp experiments were performed on an automated electrophysiology platform QPatch 16 X (Sophion Bioscience A/S, Ballerup, Denmark) in single-hole configuration using 16-channel planar patch chip QPlates (Sophion Bioscience A/S). The extracellular recording solution contained, in mM: TEACl 157, MgCl2 0.5, CaCl2 5, and HEPES 10; pH 7.4 adjusted with TEAOH; and osmolarity 320 mOsm. The intracellular pipette solution contained, in mM: CsF 140, EGTA 1, HEPES 10, and NaCl 10; pH 7.2 adjusted with CsOH; and osmolarity 325 mOsm. […]
Data were plotted and analyzed using GraphPad Prism v7.0 (GraphPad Software Inc., San Diego, CA, USA). […]

Sequence of CaV3.3 (Q9P0X4 whole entry): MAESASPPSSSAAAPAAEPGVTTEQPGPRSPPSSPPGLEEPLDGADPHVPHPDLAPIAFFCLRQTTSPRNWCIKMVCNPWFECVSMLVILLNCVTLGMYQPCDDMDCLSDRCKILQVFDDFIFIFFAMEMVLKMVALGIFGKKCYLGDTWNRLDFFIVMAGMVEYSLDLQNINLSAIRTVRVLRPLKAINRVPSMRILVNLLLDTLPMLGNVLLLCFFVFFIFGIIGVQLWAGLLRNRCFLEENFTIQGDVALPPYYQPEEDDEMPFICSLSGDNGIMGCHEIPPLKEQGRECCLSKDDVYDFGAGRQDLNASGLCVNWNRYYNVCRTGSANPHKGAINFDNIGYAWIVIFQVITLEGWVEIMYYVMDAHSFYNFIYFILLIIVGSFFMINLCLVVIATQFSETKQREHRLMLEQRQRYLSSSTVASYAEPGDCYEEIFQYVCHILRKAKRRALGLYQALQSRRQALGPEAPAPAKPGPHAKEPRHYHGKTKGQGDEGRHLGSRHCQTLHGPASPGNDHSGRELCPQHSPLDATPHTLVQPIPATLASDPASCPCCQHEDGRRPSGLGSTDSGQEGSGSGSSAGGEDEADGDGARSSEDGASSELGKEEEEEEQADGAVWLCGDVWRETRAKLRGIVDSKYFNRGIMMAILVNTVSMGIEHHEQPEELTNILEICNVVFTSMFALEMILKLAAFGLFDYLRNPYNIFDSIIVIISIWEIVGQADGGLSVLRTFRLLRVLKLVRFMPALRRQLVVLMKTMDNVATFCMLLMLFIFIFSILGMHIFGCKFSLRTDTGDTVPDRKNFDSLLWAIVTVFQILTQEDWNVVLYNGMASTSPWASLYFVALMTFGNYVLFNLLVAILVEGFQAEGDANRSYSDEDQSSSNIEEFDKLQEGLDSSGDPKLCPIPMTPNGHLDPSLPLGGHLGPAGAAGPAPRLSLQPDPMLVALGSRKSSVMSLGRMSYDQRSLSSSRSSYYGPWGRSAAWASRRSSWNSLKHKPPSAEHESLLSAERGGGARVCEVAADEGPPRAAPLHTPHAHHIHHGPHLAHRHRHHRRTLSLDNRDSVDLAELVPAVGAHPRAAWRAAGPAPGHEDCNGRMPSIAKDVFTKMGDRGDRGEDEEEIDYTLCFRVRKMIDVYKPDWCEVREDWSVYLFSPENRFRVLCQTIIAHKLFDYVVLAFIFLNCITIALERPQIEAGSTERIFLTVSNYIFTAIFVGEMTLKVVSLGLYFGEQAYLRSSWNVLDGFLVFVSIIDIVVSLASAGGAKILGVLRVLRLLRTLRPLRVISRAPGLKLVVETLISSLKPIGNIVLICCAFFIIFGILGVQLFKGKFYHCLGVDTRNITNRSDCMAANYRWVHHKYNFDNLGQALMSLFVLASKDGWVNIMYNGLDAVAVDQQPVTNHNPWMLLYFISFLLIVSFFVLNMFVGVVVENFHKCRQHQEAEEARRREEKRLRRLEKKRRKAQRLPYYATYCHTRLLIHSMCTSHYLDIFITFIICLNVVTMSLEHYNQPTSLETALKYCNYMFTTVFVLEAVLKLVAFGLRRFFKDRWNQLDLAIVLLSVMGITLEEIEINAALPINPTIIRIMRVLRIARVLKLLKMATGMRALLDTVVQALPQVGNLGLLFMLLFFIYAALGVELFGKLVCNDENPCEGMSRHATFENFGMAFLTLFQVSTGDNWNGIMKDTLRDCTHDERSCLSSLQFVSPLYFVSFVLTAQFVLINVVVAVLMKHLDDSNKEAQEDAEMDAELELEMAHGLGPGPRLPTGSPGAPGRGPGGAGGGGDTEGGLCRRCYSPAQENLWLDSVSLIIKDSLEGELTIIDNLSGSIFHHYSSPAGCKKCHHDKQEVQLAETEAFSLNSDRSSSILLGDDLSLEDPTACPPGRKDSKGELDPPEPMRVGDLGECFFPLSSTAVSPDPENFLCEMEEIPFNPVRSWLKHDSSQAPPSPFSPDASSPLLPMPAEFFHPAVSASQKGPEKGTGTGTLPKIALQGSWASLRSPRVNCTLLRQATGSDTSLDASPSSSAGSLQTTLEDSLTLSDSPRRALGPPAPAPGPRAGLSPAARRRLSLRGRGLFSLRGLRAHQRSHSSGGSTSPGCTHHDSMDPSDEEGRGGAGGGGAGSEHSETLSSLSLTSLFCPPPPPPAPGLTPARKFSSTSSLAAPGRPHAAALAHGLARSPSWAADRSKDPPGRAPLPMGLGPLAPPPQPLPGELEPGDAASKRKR

**Q.** How did the IC50 (CaV3.3; FLIPR window current assay, HEK 293 stable, N = 3, mean ± SEM, read-out: IC50 CaV3.3 (LVA CaVs)) turn out when `COC(=O)[C@H](Cc1c[nH]c2ccccc12)NC(=O)C(C)(c1c[nH]c2ccccc12)c1c[nH]c2ccccc12` [Compound 3, Methyl (2,2-di(1H-indol-3-yl)propanoyl)-L-tryptophanate] was run?
**A.** The IC50 was 3.81 ± 1.08 µM.

**Q.** And the IC50 (CaV3.3; FLIPR, representative curve, n = 4, read-out: IC50 of the representative concentration-response curve, CaV3.3 window current)?
**A.** The IC50 was 3.05 µM.

**Q.** What about the “Potency at CaV3.3 window current relative to potency at HVA CaVs” value (CaV3.3; FLIPR, CaV3.3 better than HVA CaVs) of the same molecule?
**A.** Its value is greater than 8 fold.

**Q.** And the “Kind of block of the CaV3.2 window current, in words” value (CaV3.2; FLIPR)?
**A.** Its value is “potent partial blocking”.

**Q.** What about the IC50 (CaV3.2; FLIPR window current assay, HEK 293 stable, N = 3, mean ± SEM, read-out: IC50 CaV3.2 (LVA CaVs)) of the same molecule?
**A.** Its IC50 is 6.59 ± 0.66 µM.

**Q.** What about the Emax (CaV3.2; FLIPR, n = 3, read-out: Emax, inhibition for CaV3.2) of the same molecule?
**A.** The Emax was 56.9%.

**Q.** And the IC50 (CaV3.2; FLIPR, representative curve, n = 4, read-out: IC50 of the representative concentration-response curve, CaV3.2 window current)?
**A.** The IC50 was 5.77 µM.

**Q.** And the “Half-maximal steady-state inactivation V50 of CaV3.2 in the presence of compound” value ([1]; 0.6 µM compound, control V50 −65.40 ± 1.91 mV (n = 9), n = 4–5)?
**A.** Its value is −76.36 ± 1.56 mV.

**Q.** What about the Emax ([1]; QPatch whole-cell, full inhibition, read-out: Emax value, inhibition of CaV3.2 whole-cell current) of the same molecule?
**A.** The Emax was no less than 95%.

**Q.** And the IC50 ([1]; QPatch, 200 ms steps to Vmax (−20 mV) from holding −90 mV, n = 4–5, mean ± SEM, read-out: IC50 CaV3.2 whole-cell current)?
**A.** The IC50 was 8.82 ± 2.3 µM.

**Q.** What about the “Shift of half-maximal inactivation V50 of CaV3.2 to hyperpolarized potentials” value ([1]; steady-state inactivation, 0.6 µM compound, versus control) of the same molecule?
**A.** The value was 11 mV.

From PMC6315694, “Synthesis of Pseudellone Analogs and Characterization as Novel T-type Calcium Channel Blockers” (Marine Drugs, 2018)
